{
  "source": "paper PMC8746953",
  "about": "“Caseinolytic Proteins (Clp) in the Genus Klebsiella: Special Focus on ClpK” (Molecules, 2021)",
  "target": "T1, ClpK (Klebsiella pneumoniae, UniProt E0W6V3)",
  "T1 construct": "full-length codon-optimised gene in pColdI (BamH1/SalH1), His-tagged, expressed in E. coli BL21; oligomer not measured",
  "T1 sequence (E0W6V3 entry or part of it)": "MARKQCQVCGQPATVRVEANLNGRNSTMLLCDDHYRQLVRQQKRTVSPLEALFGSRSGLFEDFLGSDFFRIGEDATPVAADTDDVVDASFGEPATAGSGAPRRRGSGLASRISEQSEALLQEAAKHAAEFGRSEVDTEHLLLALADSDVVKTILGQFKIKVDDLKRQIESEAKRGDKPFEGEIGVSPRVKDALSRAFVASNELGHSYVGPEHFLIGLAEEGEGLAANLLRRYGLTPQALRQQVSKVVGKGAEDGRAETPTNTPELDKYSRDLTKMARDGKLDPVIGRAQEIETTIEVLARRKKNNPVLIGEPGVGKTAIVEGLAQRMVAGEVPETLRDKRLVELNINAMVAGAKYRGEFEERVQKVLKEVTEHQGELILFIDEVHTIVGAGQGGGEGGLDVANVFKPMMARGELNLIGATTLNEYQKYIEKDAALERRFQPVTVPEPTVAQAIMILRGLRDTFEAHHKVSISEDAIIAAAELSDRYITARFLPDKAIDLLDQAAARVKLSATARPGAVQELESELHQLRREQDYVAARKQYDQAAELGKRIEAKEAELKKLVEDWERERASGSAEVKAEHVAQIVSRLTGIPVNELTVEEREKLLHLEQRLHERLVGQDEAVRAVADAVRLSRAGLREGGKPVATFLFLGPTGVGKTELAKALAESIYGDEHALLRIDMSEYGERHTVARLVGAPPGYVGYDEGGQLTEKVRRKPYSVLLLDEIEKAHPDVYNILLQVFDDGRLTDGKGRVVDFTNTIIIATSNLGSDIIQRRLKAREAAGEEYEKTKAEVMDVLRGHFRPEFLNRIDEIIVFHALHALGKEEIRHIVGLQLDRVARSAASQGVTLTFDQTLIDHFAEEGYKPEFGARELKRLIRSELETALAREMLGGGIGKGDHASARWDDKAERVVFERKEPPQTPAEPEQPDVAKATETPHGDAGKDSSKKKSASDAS",
  "assay": "fluorescence emission of mant-nucleotide (excitation […] nm)",
  "assay_type": "binding",
  "conditions": "2 uM ClpK, 10 uM mant-ATP; 10 mM sodium phosphate pH 7.4, 20 °C; labelled compound",
  "data": [
    {"smiles": "CNc1ccccc1C(=O)O[C@H]1[C@@H](O)[C@H](n2cnc3c(N)ncnc32)O[C@@H]1COP(=O)(O)OP(=O)(O)OP(=O)(O)O", "note": "[mant-ATP]", "values": [
      {"measurement": "fluorescence emission of mant-nucleotide (excitation 355 nm)", "value": "The spectrum indicates binding of mant-ATP as indicated by an increase in the fluorescence quantum yield"}
    ]}
  ]
}
